From patent publication US8299262B2, “Pyridylmethyl-sulfonamide compounds” (BASF SE, priority 2007, dated 2012)
Like-named read-outs stand apart in the source and are kept apart here.

Assays:
[1] = tested on: Septoria tritici; experiment: Synergistic mixtures, microtiter test, leaf blotch pathogen Septoria tritici (Use Example 26); format: cell-based; details: single compound, 4 ppm
[2] = tested on: Fusarium culmorum; experiment: Synergistic mixtures, microtiter test, Fusarium culmorum (Use Example 27); format: cell-based; details: single compound
[3] = tested on: Gaeumannomyces graminis; experiment: Synergistic mixtures, microtiter test, Gaeumannomyces graminis (Use Example 30); format: cell-based; details: single compound
[4] = tested on: Pyrenophora teres; experiment: Synergistic mixtures, microtiter test, net blotch pathogen Pyrenophora teres (Use Example 29); format: cell-based; details: single compound
[5] = tested on: Puccinia recondita; experiment: Synergistic mixtures, greenhouse, preventative control of brown rust on wheat caused by Puccinia recondita (Use Example 34); format: in vivo; details: single compound, untreated control 90% disease
Experimental: These percentages were converted into efficacies. An efficacy of 0 means that the growth level of the pathogens corresponds to that of the untreated control; an efficacy of 100 means that the pathogens were not growing.
The expected efficacies of active compound mixtures were determined using Colby's formula [R. S. Colby, Calculating synergistic and antagonistic responses of herbicide combinations, Weeds 15, 20-22 (1967)] and compared with the observed efficacies. E=x+y−x·y/100 Colby's formula • E expected efficacy, expressed in % of the untreated control, when using the mixture of the compounds A and B at the concentration a and b • x efficacy, expressed in % of the untreated control, when using compound A at a concentration of a • y efficacy, expressed in % of the untreated control, when using compound B at a concentration of b A) Microtiter Tests
The spray solutions were prepared in several steps:
The stock solution were prepared as follows: a mixture of acetone and/or dimethylsulfoxide and the wetting agent/emulsifier Wettol, which is based on ethoxylated alkylphenoles, in a relation (volume) solvent-emulsifier of 99 to 1 was added to 25 mg of the compound to give a total of 10 ml. Water was then added to total volume of 100 ml.
This stock solution was diluted with the described solvent-emulsifier-water mixture to the given concentration. The compounds pyraclostrobin, boscalid and epoxiconazole were used as commercial finished formulations and diluted with water to the stated concentration of the active compound.
The first two developed leaves of pot-grown wheat seedling were sprayed to run-off with an aqueous suspension, containing the concentration of active ingredient or their mixture as described below. The next day the plants were inoculated with spores of Puccinia recondita. To ensure the success the artificial inoculation, the plants were transferred to a humid chamber without light and a relative humidity of 95 to 99% and at temperatures between 20 and 24° C. for 24 h. Then, the plants were cultivated for 6 days in a greenhouse chamber at 20 to 24° C. and a relative humidity between 65 and 70%. The extent of fungal attack on the leaves was visually assessed as % diseased leaf area.

[6] = tested on: Thielaviopsis basicola; experiment: Synergistic mixtures, microtiter test, Thielaviopsis basicola (Use Example 31); format: cell-based; details: single compound
[7] = tested on: Alternaria solani; experiment: Synergistic mixtures, microtiter test, early blight pathogen Alternaria solani (Use Example 24); format: cell-based; details: single compound, 0.063 ppm
[8] = tested on: Colletotrichum truncatum; experiment: Synergistic mixtures, microtiter test, Colletotrichum truncatum (Use Example 28); format: cell-based; details: single compound
[9] = tested on: Pyricularia oryzae; format: cell-based; details: single compound
[10] = tested on: Phakopsora pachyrhizi; experiment: Comparative greenhouse test, curative action against soybean rust Phakopsora pachyrhizi (Use Example 22); format: in vivo; details: curative spray on soybean, untreated control 100
Experimental: The active compounds were formulated separately or together as a stock solution comprising 25 mg of active compound which was made up to 10 ml using a mixture of acetone and/or dimethyl sulfoxide (DMSO) and the emulsifier Wettol EM 31 (wetting agent having emulsifying and dispersing action based on ethoxylated alkylphenols) in a volume ratio of solvent/emulsifier of 99 to 1. This solution was then made up to 100 ml using water. This stock solution was diluted with the solvent/emulsifier/water mixture described to the active compound concentration given below.
Leaves of potted soybean seedlings were dusted with a suspension of spores of rust of soybean (Phakopsora pachyrhizi). The plants were then placed in a chamber with high atmospheric humidity (90 to 95%), at 23 to 27° C., for 24 hours. During this time, the spores germinated and the germinal tubes penetrated into the leaf tissue. The next day, the infected plants were sprayed to runoff point with an aqueous suspension having the concentration of active compound stated in table 4 (250 ppm). After drying of the sprayed suspension, the test plants were returned to the greenhouse and cultivated at temperatures between 23 and 27° C. and at 60 to 80% relative atmospheric humidity for a further 14 days. The extent of the rust development on the leaves was then determined visually.

[11] = tested on: Verticillium dahliae; details: single compound
[12] = tested on: Phytophthora infestans; format: cell-based; details: single compound
[13] = tested on: Fusarium oxysporum; details: single compound, 0.25 ppm
[14] = tested on: Pyricularia oryzae; format: cell-based; details: control =100%, day 7

Structure (SMILES) | Observed efficacy (%) [1] [%] | Observed efficacy (%) ([2]; 16 ppm) | Observed efficacy (%) ([4]; 0.25 ppm) | Observed efficacy (%) ([5]; 16 ppm) | Observed efficacy (%) ([6]; 16 ppm) | Observed efficacy (%) [7] [%] | Observed efficacy (%) ([8]; 4 ppm) | Observed efficacy (%) ([5]; 4 ppm) | Observed efficacy (%) ([6]; 1 ppm) | other results
Cc1nccc(CNS(=O)(=O)c2ccc(Oc3ccccn3)cc2)c1C [Example 33] | 22 | 1 | 0 | 33 | 9 | 4 | 24 |  |  | Observed efficacy (%) ([3]; 0.063 ppm): 4%; Observed efficacy (%) ([3]; 0.25 ppm): 21%; Observed efficacy (%) ([9]; 0.25 ppm): 38%; infection in [%] at 250 ppm [10]: 5%
COc1cc(CNS(=O)(=O)c2ccc(Oc3cccc(C)n3)cc2)ccn1 [Example 45] | 50 | 2 |  | 0 |  | 1 | 25 | 0 |  | Observed efficacy (%) ([4]; 1 ppm): 25%; Observed efficacy (%) ([9]; 0.063 ppm): 30%
COc1cnccc1CNS(=O)(=O)c1ccc(Oc2nccc(C(F)(F)F)n2)cc1 [Example 64] |  | 0 | 5 | 0 | 20 | 0 |  | 0 |  | Observed efficacy (%) ([9]; 1 ppm): 12%
Cc1nccc(CNS(=O)(=O)c2ccc(Oc3ccc(Br)cn3)cc2)c1C [Example 71] | 43 | 1 | 20 | 0 | 56 | 4 | 29 |  | 9 | Observed efficacy (%) ([3]; 0.063 ppm): 52%; Observed efficacy (%) ([11]; 4 ppm): 55%
COc1cc(CNS(=O)(=O)c2ccc(Oc3ccc(Cl)cn3)cc2)ccn1 [Example 74] | 58 | 1 | 33 | 44 |  | 0 |  |  | 32 | Observed efficacy (%) ([8]; 16 ppm): 35%
COc1cc(CNS(=O)(=O)c2ccc(Oc3ncc(C(F)(F)F)cc3C)cc2)ccn1 [Example 160] | 55 | 3 | 11 |  |  |  | 37 | 0 | 14 | Observed efficacy (%) ([5]; 1 ppm): 0%; Observed efficacy (%) ([12]; 1 ppm): 17%; Observed efficacy (%) ([9]; 0.25 ppm): 60%
Cc1cc(Oc2ccc(C(F)(F)F)cn2)ccc1S(=O)(=O)NCc1ccnc(C)c1C [Example 203] | 45 | 1 | 34 | 44 |  | 0 | 36 | 22 | 0 | Observed efficacy (%) ([6]; 4 ppm): 13%; Observed efficacy (%) ([11]; 1 ppm): 52%; Observed efficacy (%) ([11]; 4 ppm): 56%
COC(=O)N(OC)c1ccccc1COc1ccn(-c2ccc(Cl)cc2)n1 [Pyraclostrobin, reference compound] |  |  |  |  |  |  |  |  |  | Observed efficacy (%) ([2]; 0.25 ppm): 0%; Observed efficacy (%) ([3]; 0.00025 ppm): 29%; Observed efficacy (%) ([3]; 0.001 ppm): 57%; Observed efficacy (%) ([4]; 0.016 ppm): 52%; Observed efficacy (%) ([5]; 0.016 ppm): 0%; Observed efficacy (%) ([5]; 0.063 ppm): 0%; Observed efficacy (%) ([5]; 0.25 ppm): 0%; Observed efficacy (%) ([6]; 0.25 ppm): 19%; Observed efficacy (%) ([12]; 0.00025 ppm): 8%; Observed efficacy (%) ([8]; 0.063 ppm): 27%; Observed efficacy (%) ([8]; 0.25 ppm): 60%; Observed efficacy (%) [13]: 0%; Observed efficacy (%) ([9]; 0.001 ppm): 17%
COc1cc(CNS(=O)(=O)c2ccc(Oc3ccccc3)cc2)ccn1 [comparative example 1, reference compound] |  |  |  |  |  |  |  |  |  | growth in [%] at 31 ppm [14]: 97%
Cc1nccc(CNS(=O)(=O)c2ccc(Oc3ccccc3)cc2)c1C [comparative example 2, reference compound] |  |  |  |  |  |  |  |  |  | infection in [%] at 250 ppm [10]: 100%
